Source: US6858638B2, “Substituted indazoles, compositions containing them, method of production and use” (Aventis Pharma S.A., priority 2002, dated 2005)

Key:
Format in all cases: biochemical
[1] = biological target: T1, human KDR enzyme (Homo sapiens, UniProt P35968); experiment: KDR substrate (PLCγ) phosphorylation, scintillation assay; details: 10 μM; read-out: KDR % inhib at 10 μM
T1 construct: The cytoplasmic domain of the human KDR enzyme; GST; made in house; host or cells: SF21 insect cells (baculovirus)
T1 sequence (P35968 786-1356 limits assumed): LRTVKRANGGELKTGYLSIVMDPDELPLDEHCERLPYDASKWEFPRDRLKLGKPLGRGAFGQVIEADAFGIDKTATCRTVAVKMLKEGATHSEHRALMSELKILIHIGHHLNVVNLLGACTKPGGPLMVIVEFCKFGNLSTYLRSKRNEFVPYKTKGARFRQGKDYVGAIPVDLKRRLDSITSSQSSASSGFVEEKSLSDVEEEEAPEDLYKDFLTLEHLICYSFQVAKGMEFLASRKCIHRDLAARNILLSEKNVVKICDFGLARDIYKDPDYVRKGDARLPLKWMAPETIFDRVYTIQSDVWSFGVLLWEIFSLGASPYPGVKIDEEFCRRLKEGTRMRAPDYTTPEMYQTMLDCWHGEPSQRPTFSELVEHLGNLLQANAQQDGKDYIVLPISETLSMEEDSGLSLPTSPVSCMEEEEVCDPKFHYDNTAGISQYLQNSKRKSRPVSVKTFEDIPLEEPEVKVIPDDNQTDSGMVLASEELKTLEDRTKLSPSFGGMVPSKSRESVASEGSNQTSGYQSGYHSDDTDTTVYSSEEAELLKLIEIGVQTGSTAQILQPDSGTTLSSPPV
In short: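 GST-fused human KDR cytoplasmic domain from SF21 cells (about 60% pure, 100 ng) phosphorylated 2 μg of GST-PLCγ SH2-SH3 fragment. The trigger solution held γ33P-ATP with 2 μM cold ATP, in MOPS buffer pH 7.2 with Mg2+, Mn2+, vanadate and NaF. Reactions ran 1 h at 37 °C, were stopped with EDTA and counted by scintillation; results are % inhibition versus the no-compound control.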

[2] = biological target: T2, human IGF1R cytoplasmic domain (Homo sapiens, UniProt P08069); experiment: IGF1R autophosphorylation inhibition, time resolved fluorescence (HTRF) assay; details: 10 μM; read-out: IGF1R % inhib at 10 μM
T2 construct: The human IGF1R cytoplasmic domain was cloned; made in house; host or cells: SF21 insect cells (baculovirus)
T2 sequence (P08069 960-1367 limits assumed): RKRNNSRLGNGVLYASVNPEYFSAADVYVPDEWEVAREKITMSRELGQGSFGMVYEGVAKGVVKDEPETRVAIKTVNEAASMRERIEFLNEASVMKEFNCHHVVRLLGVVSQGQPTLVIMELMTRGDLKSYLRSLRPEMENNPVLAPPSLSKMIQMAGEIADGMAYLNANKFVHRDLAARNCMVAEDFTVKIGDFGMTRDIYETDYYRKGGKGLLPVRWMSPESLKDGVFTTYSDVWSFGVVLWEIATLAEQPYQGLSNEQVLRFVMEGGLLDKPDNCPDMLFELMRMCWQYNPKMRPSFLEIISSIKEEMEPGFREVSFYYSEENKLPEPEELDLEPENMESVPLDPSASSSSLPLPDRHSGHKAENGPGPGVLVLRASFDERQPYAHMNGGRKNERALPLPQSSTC
In short: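 GST-tagged human IGF1R cytoplasmic domain from SF21 cells incubated with compound in 50 mM Hepes pH 7.5, 5 mM MnCl2, 50 mM NaCl, […] ATP. Autophosphorylation detected by HTRF (Eu-K anti-phosphotyrosine, XL665 anti-GST) after EDTA/KF stop; percentage inhibition versus no-compound control.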

[3] = biological target: T3, Aurora2 kinase (Homo sapiens, UniProt O14965); experiment: Aurora2 kinase radioactivity scintillation assay using nickel chelate (NuMA substrate); details: 10 μM; read-out: Aurora2 % inhib at 10 μM
T3 construct: A complete recombinant Aurora2 enzyme; His tag (N); made in house; host or cells: E. coli
T3 sequence (O14965 1-403): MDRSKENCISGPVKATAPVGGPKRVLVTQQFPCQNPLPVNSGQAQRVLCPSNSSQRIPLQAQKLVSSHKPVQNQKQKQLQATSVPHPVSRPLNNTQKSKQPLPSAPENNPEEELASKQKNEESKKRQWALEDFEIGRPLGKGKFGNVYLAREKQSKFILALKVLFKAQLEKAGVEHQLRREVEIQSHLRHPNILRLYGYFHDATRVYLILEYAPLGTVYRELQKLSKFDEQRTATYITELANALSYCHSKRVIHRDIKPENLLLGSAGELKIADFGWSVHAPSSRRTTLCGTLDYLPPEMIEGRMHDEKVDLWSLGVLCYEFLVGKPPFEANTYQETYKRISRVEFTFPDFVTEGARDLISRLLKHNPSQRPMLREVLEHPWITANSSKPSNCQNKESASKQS
In short: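 His-tagged full-length Aurora2 (0.02 μM, E. coli) phosphorylating His-tagged NuMA C-terminal fragment (0.5 μM) with 1 μM ATP plus [33P]-ATP, 30 min at 37 °C, pH 7.5 Tris buffer with MgCl2. Nickel-chelate scintillation read; percent inhibition versus no-compound control.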

[4] = biological target: T4, human FAK (Homo sapiens, UniProt Q05397); experiment: FAK autophosphorylation inhibition, time resolved fluorescence (HTRF) assay; details: 10 μM (values without asterisk); read-out: FAK % inhib at 10 μM
T4 construct: The complete cDNA of human FAK; made in house; host or cells: baculovirus expression system (vector pFastBac HTc)
T4 sequence (Q05397 whole entry): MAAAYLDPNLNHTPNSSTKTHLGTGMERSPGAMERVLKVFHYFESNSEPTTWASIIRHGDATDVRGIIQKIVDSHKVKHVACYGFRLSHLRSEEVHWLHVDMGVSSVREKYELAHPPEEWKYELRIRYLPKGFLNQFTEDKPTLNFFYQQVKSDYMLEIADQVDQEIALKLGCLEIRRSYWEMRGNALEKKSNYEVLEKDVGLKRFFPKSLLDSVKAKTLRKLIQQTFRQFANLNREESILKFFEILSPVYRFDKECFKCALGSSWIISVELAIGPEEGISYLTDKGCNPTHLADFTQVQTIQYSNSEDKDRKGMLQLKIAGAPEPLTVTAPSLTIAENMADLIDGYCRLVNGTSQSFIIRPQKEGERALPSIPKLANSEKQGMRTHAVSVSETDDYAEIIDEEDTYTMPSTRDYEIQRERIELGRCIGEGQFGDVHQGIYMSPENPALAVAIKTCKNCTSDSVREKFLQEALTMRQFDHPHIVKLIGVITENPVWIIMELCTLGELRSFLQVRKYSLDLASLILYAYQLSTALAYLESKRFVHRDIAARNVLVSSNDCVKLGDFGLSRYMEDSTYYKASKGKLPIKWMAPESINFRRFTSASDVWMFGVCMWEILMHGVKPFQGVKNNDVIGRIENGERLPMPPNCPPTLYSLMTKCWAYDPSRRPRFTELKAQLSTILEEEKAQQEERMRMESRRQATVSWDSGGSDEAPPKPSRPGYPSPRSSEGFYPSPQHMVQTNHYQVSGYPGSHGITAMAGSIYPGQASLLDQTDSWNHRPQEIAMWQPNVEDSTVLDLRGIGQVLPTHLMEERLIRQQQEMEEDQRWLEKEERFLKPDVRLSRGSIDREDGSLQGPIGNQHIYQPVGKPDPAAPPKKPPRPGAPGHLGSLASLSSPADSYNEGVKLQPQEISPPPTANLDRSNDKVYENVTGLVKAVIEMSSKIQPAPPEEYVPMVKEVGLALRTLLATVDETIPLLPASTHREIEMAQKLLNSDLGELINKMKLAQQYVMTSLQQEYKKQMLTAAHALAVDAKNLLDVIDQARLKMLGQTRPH
In short: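 His-tagged full-length human FAK from baculovirus (6.6 µg/ml) self-phosphorylates with 15 µM ATP in HEPES pH 7.2, MgCl2, vanadate, 1 h at 37 °C. HTRF detection (Eu-anti-phosphotyrosine / XL665-anti-His), 665/620 nm ratio; % inhibition vs untreated control, duplicate mean.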

| Structure (SMILES) | inhibition at 10 µM [1] | inhibition at 10 µM [2] | inhibition at 10 µM [3] | inhibition at 10 µM [4] |
| --- | --- | --- | --- | --- |
| Cc1ccccc1-c1n[nH]c2ccc(NS(=O)(=O)c3ccccc3S(C)(=O)=O)cc12 [Example 105, 2-Methylsulfonyl-N-(3-o-tolyl-1H-indazol-5-yl)benzenesulfonamide] | 28% | 25% | 49% | 71% |
| CS(=O)(=O)c1ccccc1S(=O)(=O)Nc1ccc2[nH]nc(-c3ccccc3-c3ccccc3)c2c1 [Example 173, N-(3-Biphenyl-2-yl-1H-indazol-5-yl)-2-methanesulfonyl-benzenesulfonamide] | 32% | 27% | 77% | 62% |
| CS(=O)(=O)c1ccccc1S(=O)(=O)Nc1ccc2[nH]nc(-c3cccc(C(F)(F)F)c3)c2c1 [Example 175, N-[3-(3-Trifluoromethylphenyl)-1H-indazol-5-yl]-2-methanesulfonyl-benzenesulfonamide] | 68% | 81% | 88% | 90% |
| CSc1ccc(-c2n[nH]c3ccc(NS(=O)(=O)c4ccccc4S(C)(=O)=O)cc23)cc1 [Example 172, 2-Methanesulfonyl-N-[3-(4-methylsulfanylphenyl)-1H-indazol-5-yl]-benzenesulfonamide] | 71% | 84% | 94% | 92% |
| CS(=O)(=O)c1ccccc1S(=O)(=O)Nc1ccc2[nH]nc(-c3ccc(Cl)cc3Cl)c2c1 [Example 163, N-[3-(2,4-Dichlorophenyl)-1H-indazol-5-yl]-2-methanesulfonyl-benzenesulfonamide] | 61% | 23% | 64% | 61% |
| CS(=O)(=O)c1ccccc1S(=O)(=O)Nc1ccc2[nH]nc(-c3ccccc3N)c2c1 [Example 49, N-[3-(2-Aminophenyl)-1H-indazol-5-yl]-2-methylsulfonylbenzenesulfonamide] | 18% | 50% | 17% | 40% |
| CS(=O)(=O)c1ccccc1S(=O)(=O)Nc1ccc2[nH]nc(-c3ccc(-c4ccccc4)cc3)c2c1 [Example 170, N-(3-Biphenyl-4-yl-1H-indazol-5-yl)-2-methanesulfonyl-benzenesulfonamide] | 60% | 41% | 69% | 62% |
| Cc1cccc(-c2n[nH]c3ccc(NS(=O)(=O)c4ccccc4S(C)(=O)=O)cc23)c1 [Example 165, 2-Methanesulfonyl-N-(3-m-tolyl-1H-indazol-5-yl)-benzenesulfonamide] | 58% | 71% | 92% | 96% |
| CN(C)c1cccc2c(S(=O)(=O)Nc3ccc4[nH]nc(-c5ccccc5)c4c3)cccc12 [Example 107, 5-Dimethylamino-N-(3-phenyl-1H-indazol-5-yl)naphthalene-1-sulfonamide] | 51% | 84% | 43% | 10% |
| CSc1ccccc1-c1n[nH]c2ccc(NS(=O)(=O)c3ccccc3S(C)(=O)=O)cc12 [Example 103, 2-methylsulfonyl-N-[3-(2-methylsulfanylphenyl)-1H-indazol-5-yl]benzenesulfonamide] | 25% | 19% | 40% | 61% |

Further lines, results first:

| inhibition at 10 µM [1] | inhibition at 10 µM [2] | inhibition at 10 µM [3] | inhibition at 10 µM [4] | Structure (SMILES) |
| --- | --- | --- | --- | --- |
| 34% | 16% | 67% | 55% | CS(=O)(=O)c1ccccc1S(=O)(=O)Nc1ccc2[nH]nc(-c3ccc(OCc4ccccc4)cc3)c2c1 [Example 209, N-[3-(4-Benzyloxyphenyl)-1H-indazol-5-yl]-2-methanesulfonyl-benzenesulfonamide] |
| 70% | 83% | 92% | 95% | CS(=O)(=O)c1ccccc1S(=O)(=O)Nc1ccc2[nH]nc(-c3ccc(F)cc3F)c2c1 [Example 217, N-[3-(2,4-Difluorophenyl)-1H-indazol-5-yl]-2-methanesulfonyl-benzenesulfonamide] |
| 35% | 60% | 90% | 94% | CCOc1cccc(-c2n[nH]c3ccc(NS(=O)(=O)c4ccccc4S(C)(=O)=O)cc23)c1 [Example 186, N-[3-(3-Ethoxyphenyl)-1H-indazol-5-yl]-2-methanesulfonyl-benzenesulfonamide] |
| 71% | 80% | 95% | 97% | CS(=O)(=O)c1ccccc1S(=O)(=O)Nc1ccc2[nH]nc(-c3cccc(Cl)c3)c2c1 [Example 177, N-[3-(3-Chlorophenyl)-1H-indazol-5-yl]-2-methanesulfonyl-benzenesulfonamide] |
| 45% | 73% | 88% | 96% | CS(=O)(=O)c1ccccc1S(=O)(=O)Nc1ccc2[nH]nc(-c3ccc(CO)cc3)c2c1 [Example 191, N-[3-(4-Hydroxymethylphenyl)-1H-indazol-5-yl]-2-methanesulfonyl-benzenesulfonamide] |
| 66% | 76% | 98% | 98% | COc1ccc(-c2n[nH]c3ccc(NS(=O)(=O)c4ccccc4S(C)(=O)=O)cc23)cc1OC [Example 198, 2-Methanesulfonyl-N-[3-(3,4-dimethoxyphenyl)-1H-indazol-5-yl]benzenesulfonamide] |
| 44% | 67% | 90% | 95% | COc1cccc(-c2n[nH]c3ccc(NS(=O)(=O)c4ccccc4S(C)(=O)=O)cc23)c1 [Example 178, 2-Methanesulfonyl-N-[3-(3-methoxyphenyl)-1H-indazol-5-yl]benzenesulfonamide] |
| 88% | 75% | 95% | 96% | CS(=O)(=O)c1ccc(-c2n[nH]c3ccc(NS(=O)(=O)c4ccccc4S(C)(=O)=O)cc23)cc1 [Example 220, 2-Methanesulfonyl-N-[3-(4-methanesulfonylphenyl)-1H-indazol-5-yl]-benzenesulfonamide] |
| 37% | 50% | 90% | 82% | COc1ccccc1-c1n[nH]c2ccc(NS(=O)(=O)c3ccccc3S(C)(=O)=O)cc12 [Example 183, 2-Methanesulfonyl-N-[3-(2-methoxyphenyl)-1H-indazol-5-yl]benzenesulfonamide] |
| 20% | 31% | 62% | 70% | CCOc1ccccc1-c1n[nH]c2ccc(NS(=O)(=O)c3ccccc3S(C)(=O)=O)cc12 [Example 189, N-[3-(2-Ethoxyphenyl)-1H-indazol-5-yl]-2-methanesulfonyl-benzenesulfonamide] |
| 79% | 83% | 96% | 97% | CS(=O)(=O)c1ccccc1S(=O)(=O)Nc1ccc2[nH]nc(-c3ccc(O)cc3)c2c1 [Example 202, N-[3-(4-Hydroxyphenyl)-1H-indazol-5-yl]-2-methanesulfonyl-benzenesulfonamide] |
| 50% | 74% | 95% | 96% | CCOc1ccc(-c2n[nH]c3ccc(NS(=O)(=O)c4ccccc4S(C)(=O)=O)cc23)cc1 [Example 190, N-[3-(4-Ethoxyphenyl)-1H-indazol-5-yl]-2-methanesulfonyl-benzenesulfonamide] |
